According to patent US8114862B2, “TGR5 modulators and methods of use thereof” (Intercept Pharmaceuticals, Inc., priority 2008, dated 2012):

What was measured:
intestinal bacteria = assay: Metabolic stability in human stool culture (7α-dehydroxylation); format: in vitro ADME
Method: Homogenized fresh human stools (500 mg) were transferred into sterile vials to which 5 mL of sterilized chopped meat-glucose medium (Scott Lab., Fiskville, R.I.) was added. BA was then added at a final concentration of 0.05 mM. […] The samples were centrifuged at 3500 rpm for 10 min; from the supernatant the BA were isolated by C-18 solid-phase extraction and analyzed by TLC and HPLC-ES-MS/MS.
Thin-layer chromatography (TLC), utilizing silica gel 0.25 mm thickness plates (Merck, Darmstat, Germany), was employed as the first screening test. The solvent system used for the separation of conjugated BA was composed of propionic acid/isoamyl acetate/water/N-propanol (3:4:1:2, v/v/v/v; solvent I), and that of the unconjugated BA was acetic acid/carbon tetrachloride/isopropyl ether/isoamyl acetate/water/N-propanol/benzene (1:4:6:8:2:2, v/v/v/v/v/v; solvent II).

LXRα = molecular target: T1, LXRα (Homo sapiens, UniProt Q13133); assay: LXR coactivator recruitment (alphascreen); format: biochemical
T1 sequence (Q13133 1-447): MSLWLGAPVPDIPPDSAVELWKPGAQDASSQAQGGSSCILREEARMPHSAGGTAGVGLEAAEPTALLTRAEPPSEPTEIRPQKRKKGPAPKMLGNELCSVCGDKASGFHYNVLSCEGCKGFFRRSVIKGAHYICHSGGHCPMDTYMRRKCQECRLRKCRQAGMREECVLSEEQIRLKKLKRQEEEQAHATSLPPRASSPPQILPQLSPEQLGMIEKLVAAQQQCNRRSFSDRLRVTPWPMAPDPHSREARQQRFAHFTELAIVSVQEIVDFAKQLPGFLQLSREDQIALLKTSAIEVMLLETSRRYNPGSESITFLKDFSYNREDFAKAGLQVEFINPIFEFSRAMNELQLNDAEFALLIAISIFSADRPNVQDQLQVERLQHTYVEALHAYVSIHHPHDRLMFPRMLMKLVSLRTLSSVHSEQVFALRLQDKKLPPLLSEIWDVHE

TGR5+/+ and TGR5-/- mice = assay: Plasma GLP-1 after oral glucose challenge in TGR5+/+ and TGR5-/- mice; format: in vivo, mouse; details: for GLP-1 release after a glucose challenge: TGR5+/+ mice
Method: Animals were housed and bred according to standardized procedures (Argmann and Auwerx, 2006b). Age-matched male mice were used for all experiments. Genetically engineered mouse models (GEMMs), i.e., TGR5-Tg and TGR5^−/− mice, were generated as described in the Supplemental Data. […]; Research Diets) for at least 8 weeks, as mentioned in the text and figure legends. […] Mouse phenotyping experiments were performed according to EMPRESS protocols (see, for example, Empress (European Mouse Phenotyping Resource of Standardised Screening) website) and were aimed to assess food and water intake, body composition (Argmann et al., 2006a, Curr. Protoc. Mol. Biol. Chapter 29, Unit 29A, 23), energy expenditure (Argmann et al., 2006a, Curr. Protoc. Mol. Biol. Chapter 29, Unit 29A, 23), glucose and lipid homeostasis (Argmann et al., 2006b, Curr. Protoc. Mol. Biol. Chapter 29, Unit 29A, 22); Heikkinen et al., 2007, Curr. Protoc. Mol. Chapter. 29, Unit 29B, 23; Mataki et al., 2007, Mol. Cell. Biol. 27, 8330), and plasma biochemistry (Argmann and Auwerx, 2006a, Curr. Protoc. Mol. Biol. Chapter 29, Unit 29A, 22). Tissues and blood were collected and processed for histopathology, blood chemistry, and gene expression according to standardized procedures (Argmann and Auwerx, 2006a; Feige et al., 2008b; Mark et al., 2007; Watanabe et al., 2006). Hyperinsulinemic euglycemic clamp studies were performed as described (Feige et al., 2008b), with minor modifications including a change in the initial insulin bolus (30 mU/kg) and insulin infusion rate (10 mU/min/kg). Plasma GLP-1 levels were measured by ELISA (Millipore) on blood collected by retro-orbital puncture. […].
To further establish a role of TGR5 signaling in the maintenance of glucose homeostasis, we assessed the glucose tolerance of germline TGR5-deficient mice (TGR5^−/−), generated by breeding mice in which the TGR5 allele was floxed with CMV-Cre transgenic mice. […].

primary brown adipocytes = assay: O2 consumption in primary brown adipocytes; format: cell-based, mouse; details: treated for 12 hr, 3 μM
in vitro = details: human, s9
VDR = molecular target: T2, VDR (Homo sapiens, UniProt P11473); assay: VDR coactivator recruitment assay
T2 sequence (P11473 127-423 limits assumed): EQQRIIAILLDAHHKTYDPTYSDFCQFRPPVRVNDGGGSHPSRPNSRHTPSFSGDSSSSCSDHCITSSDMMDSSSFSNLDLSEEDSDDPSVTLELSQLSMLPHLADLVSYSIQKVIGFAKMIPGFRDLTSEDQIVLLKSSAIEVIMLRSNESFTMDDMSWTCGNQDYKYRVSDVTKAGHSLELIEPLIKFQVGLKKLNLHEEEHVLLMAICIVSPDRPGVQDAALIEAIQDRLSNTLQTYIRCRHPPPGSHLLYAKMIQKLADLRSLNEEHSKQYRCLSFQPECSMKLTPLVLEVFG
Method: Lanthascreen assay (Invitrogen) was used for nulear receptor selectivity assay. The kit uses a terbium-labeled anti-GST antibody, a fluorescein-labeled coactivator peptide, and a NR ligand-binding domain that is tagged with glutathione-S-transferase (GST) in a homogenous mix-and-read assay format. […] Following 1 hour incubation in the dark, TR-FRET measurements were made in the Envision. […] The data was analyzed using GraphPad Prism using the sigmoidal curve equation with variable slope to obtain EC50 values.

[1] = Stability in human liver microsomes; details: liver microsomes
[2] = Biliary secretion and metabolism in bile fistula rat, id and iv infusion; details: for Conc. / Secretion: rat bile; for fraction unbound at 4 h: rat, in vivo, 1 μmol/kg/min
[3] = duodenal infusion 75-135 min, time 90 min
[4] = duodenal infusion 75-135 min, time 120 min
[5] = duodenal infusion 75-135 min, time 150 min
[6] = duodenal infusion 75-135 min, time 180 min
[7] = duodenal infusion 75-135 min, time 210 min
[8] = duodenal infusion 75-135 min, time 240 min
[9] = duodenal infusion 75-135 min, time 270 min
[10] = duodenal infusion 75-135 min, time 300 min
[11] = femoral infusion 75-135 min, time 90 min
[12] = femoral infusion 75-135 min, time 120 min
[13] = femoral infusion 75-135 min, time 150 min
[14] = femoral infusion 75-135 min, time 180 min
[15] = femoral infusion 75-135 min, time 210 min
[16] = femoral infusion 75-135 min, time 240 min
[17] = femoral infusion 75-135 min, time 270 min

CC[C@H]1[C@@H](O)[C@@H]2[C@H](C[C@H](O)[C@]3(C)[C@@H]([C@H](C)C[C@H](C)C(=O)O)CC[C@@H]23)[C@@]2(C)CC[C@@H](O)C[C@@H]12 [Ih3e, 6α-ethyl-(23S)-methyl-3α,7α,12α trihydroxy-5β-cholan-24-oic acid]
7-dehydroxylation and intermediate formation of a 7-oxo derivative (intestinal bacteria): practically abolished
side chain stability to intestinal bacteria enzymatic activities (intestinal bacteria): not modified
compound recovered unmodified (intestinal bacteria; after 24 hour incubation): more than 85%
compound unmodified (intestinal bacteria; human, 12 h, 0.05 mM): more than 95%
LXRα Activation EC50 (LXRα): No activity
GLP-1 release after a glucose challenge (TGR5+/+ and TGR5-/- mice; DPP4 inhibitor sitagliptin coadministered): markedly more pronounced
GLP-1 release after a glucose challenge (TGR5+/+ and TGR5-/- mice; preadministration 30 mg/kg oral): moderately increased GLP-1 release
effects on plasma GLP-1 levels (TGR5+/+ and TGR5-/- mice; TGR5-/- mice): blunted
O2 consumption after FCCP (primary brown adipocytes): significantly more pronounced
half-life (in vitro): 12.1 h
VDR Activation EC50 (VDR): No activity
half-life [1]: 32.4 h
compound secreted into the bile in its unconjugated form ([2]; after intravenous or intraduodenal infusion): more than 90%
biliary secretion ([2]; after iv administration): efficient
recovery in bile after id administration ([2]; id vs iv): slightly lower than the recovery after iv administration
Conc. [2, 3]: 7 µM
Secretion [2, 3]: 0.0003 µmol/kg/min
Conc. [2, 4]: 690 µM
Secretion [2, 4]: 0.057 µmol/kg/min
Conc. [2, 5]: 1880 µM
Secretion [2, 5]: 0.167 µmol/kg/min
Conc. [2, 6]: 1290 µM
Secretion [2, 6]: 0.150 µmol/kg/min
Conc. [2, 7]: 790 µM
Secretion [2, 7]: 0.077 µmol/kg/min
Conc. [2, 8]: 390 µM
Secretion [2, 8]: 0.033 µmol/kg/min
Conc. [2, 9]: 270 µM
Secretion [2, 9]: 0.026 µmol/kg/min
Conc. [2, 10]: 200 µM
Secretion [2, 10]: 0.015 µmol/kg/min
Conc. [2, 11]: 1900 µM
Secretion [2, 11]: 0.1 µmol/kg/min
Conc. [2, 12]: 3100 µM
Secretion [2, 12]: 0.23 µmol/kg/min
Conc. [2, 13]: 3400 µM
Secretion [2, 13]: 0.31 µmol/kg/min
Conc. [2, 14]: 2300 µM
Secretion [2, 14]: 0.2 µmol/kg/min
Conc. [2, 15]: 1060 µM
Secretion [2, 15]: 0.105 µmol/kg/min
Conc. [2, 16]: 550 µM
Secretion [2, 16]: 0.049 µmol/kg/min
Conc. [2, 17]: 270 µM
Secretion [2, 17]: 0.018 µmol/kg/min
fraction unbound at 4 h [2]: 0.94 ± 0.06
fraction unbound at 4 h ([2]; iv): 0.93
